Laboratory results reported in US4929751A, “Vinyl tricarbonyl compounds and methods of making the same” (Yale University, priority 1987, dated 1990).
Read-outs that look alike come from different tables or passages of the source.

Key:
Assay type in all cases: cell-based
OVCAR-5 (ovarian) = experiment: growth inhibition of tumor cell line; settings: for IC50: Homo sapiens, OVCAR-5
Description: (§1) t-Butyl 2,3-dioxo-pent-4-enoate hydrate (A) was contacted with various cell lines as indicated on Table 1 hereinbelow in the column designated as "CELL" or "TUMOR". […]
As described below, the data in Table 1 serve to display the testing results on disease category selectivity in a bar graph format. Bars projecting to the right of the reference (vertical line of asterisks) indicate greater than average sensitivity to the test compound. Each bar represents one power of ten in sensitivity, so that the results for OVCAR-5 (ovarian tumor) indicate a remarkable […] increase in sensitivity over the reference test.
(§2) Table 1 reports and illustrates the results obtained by testing t-butyl 2,3-dioxo-pent-4-enoate hydrate. The concentration of this compound found to inhibit the growth of each cell line listed under "CELL" by 50% is reported under "LOG(IC50)" as the logarithm of the concentration. The units of concentration are either molarity in which case an "M" is shown in parentheses next to the LOG(IC50) label, or micrograms per ml, in which case a "W" (for weight) is shown in parenthesis. The cell line names are grouped by disease type and the disease type names are listed on the far left.

tumor cells = experiment: growth inhibition of tumor cells, whole panel (mean graph)
Description: as §1, §2
The graph on the right depicts the data on the left in a format called a "MEAN GRAPH" which is designed to aid in the identification of differential growth inhibition. […] The interest in using this concept of differential growth inhibition as a criterion of activity in the screening system is to encourage the discovery of new types of anticancer agents having greater tissue specificity than cancer chemotherapeutic agents in use today.
The idea for the Mean Graph resulted from trying to detect differential growth inhibition in a bar graph format Experimentation led to a graph centered at the arithmetic mean (ML) of the logarithm of the IC50'a of all the cell line responses measured for a compound. The Mean Graph is constructed around a vertical reference (indicating ML) by projecting bars to the right or to the left. […] The lengths of the bars are proportional to the differences between the logarithms of the specific cell line IC50's and the overall mean value ML. These lengths represent differences in logarithms which are equivalent to the ratios of the specific IC50's to the geometric mean of all the IC50's. Therefore, a useful property of the Mean Graph format is the ability to compare patterns derived from IC50's measured in different units, e.g, micrograms per ml and molarity. The units cancel in the division process.
Differential growth inhibition is depicted as a bar projecting some distance to the right of ML. A bar projecting three log units to the right of ML, for example, would reflect a cellular sensitivity 1000 times greater than ML. While any degree of sensitivity greater than ML might theoretically be considered differential growth inhibition, in practice one must consider the experimental error in the measurement and at what point the degree of differential growth inhibition becomes meaningful in biological terms. The three values listed a the bottom of the graph provide the value of ML as "AVE LOG(IC50)", the greatest difference from ML as "DELTA" and the difference between the least sensitive cell line and the most sensitive cell line as the "RANGE".

[1] = system: SNB-44 (central nervous system); experiment: growth inhibition of tumor cell line
Description: as §1, §2

A704 (renal) = experiment: growth inhibition of tumor cell line; settings: Homo sapiens
Description: as §1, §2

MALME-3M (melanoma) = experiment: growth inhibition of tumor cell line; settings: Homo sapiens
Description: as §1, §2

RPMI-7951 (melanoma) = experiment: growth inhibition of tumor cell line; settings: Homo sapiens
Description: as §1, §2

[2] = system: MCF-7/ADR (resistant breast cancer); experiment: growth inhibition of tumor cell line; settings: Homo sapiens
Description: as §1, §2

SW620 (colon) = experiment: growth inhibition of tumor cell line; settings: Homo sapiens
Description: as §1, §2

[3] = logarithm of the concentration inhibiting growth by 50%, read-out: LOG(IC50) (converted)

IC50 (OVCAR-5 (ovarian); read-out: IC-50 MEAN): 2.01 µM | IC50 (OVCAR-5 (ovarian); [3]): 1.26 µM | IC50 (tumor cells; mean over the cell lines, read-out: IC-50 MEAN, NSC MEAN): 79.1 µM | IC50 (tumor cells; total cell lines used = 42, read-out: MEAN OF ALL LOGIC50'S (converted)): 100 µM | IC90 ([1]; SNB44): 235 µM | IC50 ([1]; SNB44, logarithm of the concentration inhibiting growth by 50%, read-out: LOG(IC50) (converted)): 100 µM | IC50 ([1]; SNB44, read-out: IC-50 MEAN): 94 µM | IC90 (A704 (renal)): 229 µM | IC50 (A704 (renal); [3]): 50.1 µM | IC50 (A704 (renal); read-out: IC-50 MEAN): 46.6 µM | IC90 (MALME-3M (melanoma)): 180 µM | IC50 (MALME-3M (melanoma); MALME-3, logarithm of the concentration inhibiting growth by 50%, read-out: LOG(IC50) (converted)): 100 µM | IC50 (MALME-3M (melanoma); read-out: IC-50 MEAN): 78.8 µM | IC90 (RPMI-7951 (melanoma)): 178 µM | IC50 (RPMI-7951 (melanoma); RPMI-79, logarithm of the concentration inhibiting growth by 50%, read-out: LOG(IC50) (converted)): 79.4 µM | IC50 (RPMI-7951 (melanoma); read-out: IC-50 MEAN): 76.7 µM | IC50 ([2]; NCI/ADR-RES, MCF-7/ADR, read-out: IC-50 MEAN): 96 µM | IC50 ([2]; MCF-7/A, logarithm of the concentration inhibiting growth by 50%, read-out: LOG(IC50) (converted)): 100 µM | IC90 (SW620 (colon); SW-620): 234 µM | IC50 (SW620 (colon); SW-620, logarithm of the concentration inhibiting growth by 50%, read-out: LOG(IC50) (converted)): 63.1 µM | IC50 (SW620 (colon); SW-620, read-out: IC-50 MEAN): 58 µM
Compound: C=CC(=O)C(O)(O)C(=O)OC(C)(C)C [t-butyl 2,3-dioxo-pent-4-enoate hydrate]
effectiveness against ovarian cell line OVCAR-5 (OVCAR-5 (ovarian); in words): particularly effective | IC50 (tumor cells; arithmetic mean of the logarithm of the IC50 of all cell lines, read-out: AV TC50 (AVE LOG(IC50), ML) (converted)): 74.1 µM | RANGE (tumor cells; difference between least and most sensitive cell line, log units): 2.3 | DELTA (tumor cells; greatest difference from ML, log units): 1.8
